Two molecules from paper PMC7802073, “Small Molecule Inhibitors of the Bacterioferritin (BfrB)–Ferredoxin (Bfd) Complex Kill Biofilm-Embedded Pseudomonas aeruginosa Cells” (ACS Infectious Diseases, 2020) can be followed below.

In series [1] the test system is iron stored in BfrB in pellicle-embedded P. aeruginosa PAO1 cells. Description: Iron stored in BfrB, native PAGE stained with Ferene S, densitometry. The format is cell-based, Pseudomonas aeruginosa. Particulars: 2-day old pellicles, 24 h, KM-5-25 40 μM or KM-5-66 20 μM.
Another series in a line: Aqueous solubility. The class given is physicochemical. Particulars: aqueous media; read-out: soluble in aqueous media to.
The test system of the next series is P. aeruginosa PAO1. Kind of series: microbe, parasite or virus in culture. The format is cell-based, Pseudomonas aeruginosa. The following applies: for secreted pyoverdine relative to untreated control, fluorescence at 460 nm normalized to CFU/mL: KM-5-25 70 μM or KM-5-66 50 μM, 27 h, M63 media; for viability at 50 µM: Pseudomonas aeruginosa, PAO1, 27 h, read-out: viable cells relative to the untreated control. On the procedure:
Cultures of P. aeruginosa PAO1 treated with KM-5-25 (70 μM) or KM-5-66 (50 μM) were grown for 27 h prior to diluting the contents of each well in PBS (pH 7.4) and plating the cells on PIA plates for enumeration of CFU/mL. The 500-fold diluted solution was clarified by centrifugation and the pyoverdine in the cell-free supernatant was analyzed by acquiring fluorescence emission spectra (430–550 nm) with excitation at 400 nm (10 nm slit width) and emission at λmax = 460 nm (10 nm slit width) using a PerkinElmer LS50B spectrophotometer.
Figure S5. P. aeruginosa cells treated with 4-aminoisoindoline-1,3-dione derivatives overproduce pyoverdine. (A) P. aeruginosa cultures treated with KM-5-25 (70 µM) or KM-5-66 (50 µM) for 27 h have ~35% of the viable cells in the untreated control. (B) Fluorescence spectra from cell -free supernatant corresponding to untreated cultures ( solid line), treated with KM-5-25 (dashed line), or treated with KM-5-66 (dotted line). (C) Fluorescence intensity normalized to the number of viable […]
pyoverdine than cells in the untreated control. Averages and standard deviations for 3 biological replicates are shown. p < 0.01 denoted by ** and p < 0.001 by *** relative to untreated.
(1 picture or pasted object on this page, not shown here)

For series [2], the system named is EYFP-expressing P. aeruginosa PAO1 pellicles. Kind of series: Viable cells (CFU/mL) dispersed from pellicle biofilms. The class given is cell-based, Pseudomonas aeruginosa. The following applies: 24 h; for viable cell count relative to the untreated pellicle (% cell survival): KM-5-25 40 μM (0.6× IC50) or KM-5-66 20 μM (0.5× IC50).
Description: Pellicle biofilms of EYFP-expressing P. aeruginosa PAO1 or clinical isolates were grown in PI media supplemented with 20 μM Fe. Starter cultures were diluted to OD600 = 0.001 in 4 mL media, placed in 35 × 10 mm Petri dishes and incubated statically at 30 °C for 48 h. The pellicles were transferred onto circular (1.5 cm diameter) glass coverslips by gently allowing the surface of a coverslip to contact a pellicle. The pellicle-adhered coverslip was washed in PBS and then deposited on top of 1.5 mL AB challenge media contained in a well of a 12-well microplate, with the pellicle exposed to the media. […] The coverslip-adhered pellicles were exposed to challenge media at 30 °C for 24 h, changing the challenge media every 12 h by transferring the pellicle-adhered coverslip to a new plate containing prewarmed challenge media.
Pellicle biofilms were grown as described above. Planktonic and loosely attached cells were washed (3 times) by immersing the coverslip-adhered pellicles (biofilm facing up) into a well of a 12-well plate containing 3 mL PBS, and incubating (5 min) with gentle rocking. To remove the pellicle from the coverslip, break the extracellular matrix and release cells from the biofilm, the coverslip-adhered pellicle was placed in a 50 mL conical tube containing a 2 mL suspension of zirconia beads (0.1 mm diameter, BioSpec Products), 10 mL PBS, 0.2 μg/mL alginate lyase and 0.2 μg/mL DNase. The resultant mixture was incubated at room temperature for 3 min, followed by vigorous vortexing for 4 min. After sedimentation of the zirconia beads, a 100 μL aliquot was used for serial dilution and plating on PIA plates for subsequent enumeration of viable cells (CFU/mL).
For the next series, the target named is BfrB (Pseudomonas aeruginosa, UniProt Q9HY79). Description: Dissociation constant (Kd) for BfrB by fluorescence polarization. The class given is binding. The protocol: Dissociation constants for the interaction between BfrB and 3-aminoisoindoline-1,3-dione derivatives (Table 1, Figure S1) were measured in vitro with a fluorescence polarization method based on the intrinsic fluorescence of the isoindoline-1,3-dione moiety, as described previously.[25]
25 (A) and KM-5-66 (B) for BfrB, evaluated by fluorescence polarization, as described previously1.
Values were obtained in 100 mM potassium phosphate buffer (pH 7.6) containing 1 mM TCEP and
0.5% DMSO. The initial concentrations of KM-5-25 and KM-5-66 were 5 µM. The Kd values are the
average and standard deviation from three independent measurements. […]
(In fluorescence polarisation assays a small probe gives low polarisation when free and higher when bound to something large.)

In series [3] the test system is P. aeruginosa PAO1 cells dispersed from pellicles. Kind of series: Total intracellular iron in biofilm-embedded cells. The class given is cell-based, Pseudomonas aeruginosa. The following applies: 2-day old pellicles, 24 h, KM-5-25 40 μM or KM-5-66 20 μM. The protocol:
Pellicle biofilms were grown for 48 h as described above. The pellicles were transferred onto square (2 × 2 cm) glass coverslips by gently contacting the pellicle with the coverslip. […] After the zirconia beads had sedimented, a 100 μL aliquot was sampled from the cell suspension for plating and enumeration of viable cells and a 14 mL sample was used to harvest the cells by centrifugation (20 min, 400 rpm). The cell pellet was resuspended in 1 mL PBS, transferred to a 1.5 mL microcentrifuge tube, centrifuged for 10 min at 12 500 rpm at 4 °C and the cell pellet frozen at −80 °C. The frozen cells were subjected to three freeze–thaw cycles and then lysed by addition of 200 μL of lysis buffer (50 mM Tris-HCl buffer (pH 8.0) containing 10% (v/v) glycerol, 20 mg/mL lysozyme, 0.2 mg/mL DNase, 0.1 M NaCl, 1 mM MgSO4 and 1% (v/v) Triton-X100) and incubated at ambient temperature (30 min) and at 37 °C (30 min). […] Levels of total intracellular iron were determined as reported previously:[23],[87] […] The iron concentration was measured from the absorbance of the Fe^2+–Ferene S complex (ε593 = 34.5 mM^–1 cm^–1),[88] normalized by the viable cell counts and reported as Fe atoms per cell.

The mark [4] stands for this setting: 2-day old pellicles, 1.2× IC50 (KM-5-25 80 μM, KM-5-66 50 μM).
The mark [5] stands for this setting: compound at 1.2× IC50 combined with colistin 25× MIC (20 μM).
[6] abbreviates: compound at 1.2× IC50 combined with colistin 25× MIC.
[7] abbreviates: compound at 1.2× IC50 combined with colistin 50× MIC (40 μM).
Where [8] appears, read: compound at 1.2× IC50 combined with colistin 50× MIC.
Setting [9] is: compound at 1.2× IC50 combined with tobramycin 25× MIC (27 μM).
The mark [10] stands for this setting: compound at 1.2× IC50 combined with tobramycin 25× MIC.
The mark [11] stands for this setting: compound at 1.2× IC50 combined with tobramycin 50× MIC.

Converted amounts (≈) assume the structure as drawn. “And” between values parts separate entries of the source, which are not always exact repeats. Equal entries are not always repeated.

Chain of BfrB (Q9HY79 whole entry): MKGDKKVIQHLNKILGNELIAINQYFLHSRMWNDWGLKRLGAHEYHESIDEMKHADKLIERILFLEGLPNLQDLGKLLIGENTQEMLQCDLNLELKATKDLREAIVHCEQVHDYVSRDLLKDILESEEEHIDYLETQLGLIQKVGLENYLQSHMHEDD

In the case of `O=C1NC(=O)c2c(NCc3cc(Cl)ccc3O)cccc21` [KM-5-25, 4-((5-Chloro-2-hydroxybenzyl)amino)isoindoline-1,3-dione], in series [1], the “iron in BfrB relative to cells in untreated pellicles (Ferene S band peak area)” value is recorded as roughly 3 fold. Moreover, in “Aqueous solubility”, the solubility is roughly 110 µM (≈ 33.3 µg/mL). In the series with P. aeruginosa PAO1, the “secreted pyoverdine relative to untreated control, fluorescence at 460 nm normalized to CFU/mL” value is roughly 5 fold. In the series on P. aeruginosa PAO1, the viability at 50 µM was roughly 35%. For the same molecule, the “% survival relative to cells in the pretreated biofilm” value in series [2] (2-day old pellicles, 0.6× IC50) is listed as roughly 38%; in series [2] (setting [4]), roughly 25%. For the same molecule, the “viable cell count relative to the untreated pellicle (% cell survival)” value in series [2] (2-day old pellicles) is 42% and 42.5%. The “% survival, combination treatment” value in series [2] (setting [5]) is roughly 1%; in series [2] (setting [7]), roughly 0.5%; in series [2] (setting [9]), roughly 0.5%; in series [2] (setting [11]), roughly 0.003%. Also, the entries for the “reduction of viable cells relative to treatment with colistin alone” value in series [2] (setting [6]) and in series [2] (setting [8]) were roughly 1 log and roughly 0.7 log, respectively. The “reduction of viable cells relative to treatment with tobramycin alone” value in series [2] (setting [10]) was “approximately 2.5 log”; in series [2] (setting [11]), roughly 4.7 log. In addition, on BfrB, the Kd (in general, the free concentration of one partner at which half of the binding sites on the other are occupied at equilibrium, for simple one-to-one binding) is 4000 ± 600 nM. Besides, the “total intracellular iron normalized to viable cell counts, relative to untreated biofilms” value in series [3] is given as roughly 2.5 fold.

In the case of `O=C1NC(=O)c2c(NCCCc3cc(O)cc(Cl)c3)cccc21` [KM-5-66, 4-((3-(3-Chloro-5-hydroxyphenyl)propyl)amino)isoindoline-1,3-dione], the “iron in BfrB relative to cells in untreated pellicles (Ferene S band peak area)” value in series [1] is roughly 3 fold. For the same molecule, the solubility in “Aqueous solubility” was roughly 80 µM (≈ 26.5 µg/mL). Besides, the “secreted pyoverdine relative to untreated control, fluorescence at 460 nm normalized to CFU/mL” value in the series with P. aeruginosa PAO1 was roughly 5 fold. Also, the viability at 50 µM in the series with P. aeruginosa PAO1 was roughly 35%. The “% survival relative to cells in the pellicles prior to treatment” value in series [2] (2-day old pellicles, 0.3× IC50) was “approximately 57%”. Besides, the “% survival relative to cells in the pretreated biofilm” value in series [2] (2-day old pellicles, 0.6× IC50) was roughly 21%; in series [2] (setting [4]) it was roughly 15%. The “viable cell count relative to the untreated pellicle (% cell survival)” value in series [2] (2-day old pellicles) is 37% and 37.2%. Also, the “% survival, combination treatment” value in series [2] (setting [5]) is listed as roughly 0.3%; in series [2] (setting [7]), roughly 0.02%; in series [2] (setting [9]), 5%; in series [2] (setting [11]), 1%. Besides, the “reduction of viable cells relative to treatment with colistin alone” value in series [2] (setting [6]) is listed as “approximately 1.7 log”; in series [2] (setting [8]) it was roughly 1.9 log. Further, the “reduction of viable cells relative to treatment with tobramycin alone” value was “approximately 1.5 log” in series [2] (setting [10]) and roughly 2 log in series [2] (setting [11]). The molecule further returned a Kd at BfrB of 350 ± 50 nM. Besides, the “total intracellular iron normalized to viable cell counts, relative to untreated biofilms” value in series [3] is given as roughly 2.5 fold.
